Experimental data published in patent US6943194B1, “Synthesis of phenstatin and prodrugs thereof” (Arizona Board of Regents, acting for and on behalf of …, priority 1998, dated 2005).

System: not given
Experiment: not given
Settings: not given

| Compound | melting point [°C] |
| --- | --- |
| COc1cc(C(=O)c2ccc3c(c2)OCO3)cc(OC)c1OC [Compound 4a, 3,4,5-trimethoxy-3′,4′-methylenedioxybenzophenone] | 124 to 125 |

System: NCI 60 Cell-Line Human Tumor Screen
Experiment: NCI 60 cell-line human tumor screen
Assay type: cell-based
Settings: Homo sapiens; mean over NCI 60 cell-line panel, tested in triplicate; read-out: Mean Panel GI50 (±S.D)
Description: Compounds 3b, 3d, 1d, and 4a-f were comparatively evaluated in the NCI 60 cell-line human tumor screen (Boyd, Status of the NCI preclinical antitumor drug discovery screen. Implications for selection of new agents for clinical trial, CANCER: Principles and Practices of Oncology Updates, DeVita, et al. (Eds.), Lippincott: Philadelphia, 1989; Vol. 10, No. 3, pp. 1-12; Boyd, The Future of New Drug Development. Section I. Introduction to Cancer Therapy, Current Therapy in Oncology, Niederhuber, (Ed.), B. C. Decker, Inc.: Philadelphia, 1993; pp. 11-22; Boyd, et al., Data display and analysis strategies from NCI disease-oriented in vitro antitumor drug screen. In Cytotoxic Anticancer Drugs: Models and Concepts for Drug Discovery and Development, Valeriote, et al. (Eds.), Kluwer Academic Publishers: Amsterdam, 1992; pp. 11-34; Stinson, et al., Morphological and Immunocytochemical Characteristics of Human Tumor Cell Lines for Use in a Disease-Oriented Anticancer Drug Screen, Anticancer Res. 1992, 12,-1035-1054; Boyd, et al., Some Practical Considerations and Applications of the NCI in vitro Drug Discovery Screen, Drug Dev. Res. 1995, 34, 91-109).

| Compound | GI50 [µM] |
| --- | --- |
| COc1ccc(C(=O)c2cc(OC)c(OC)c(OC)c2)cc1OC [Compound 4c, 3,3′,4,4′,5-pentamethoxybenzophenone] | 5.11 |
| COc1cc(C(=O)c2ccc3c(c2)OCO3)cc(OC)c1OC [Compound 4a, 3,4,5-trimethoxy-3′,4′-methylenedioxybenzophenone] | 2.7 |

System: tubulin
Experiment: Inhibition of [3H]colchicine binding to tubulin
Parameters: species or system bovine
Settings: 1.0 μM tubulin, 5.0 μM [3H]colchicine, 5.0 μM inhibitor, 10 min at 37° C.
Description: Reaction mixtures contained 0.1 mg/mL (1.0 μM) tubulin, 5.0 μM [3H]colchicine, and 5.0 μM inhibitor and were incubated for 10 min at 37° C.

| Compound | Inhibition of colchicine binding % inhibition [%] |
| --- | --- |
| COc1ccc(/C=C\c2cc(OC)c(OC)c(OC)c2)cc1O [Compound 1b, combretastatin A-4, reference compound] | 97 |
| COc1ccc(C(=O)c2cc(OC)c(OC)c(OC)c2)cc1OC [Compound 4c, 3,3′,4,4′,5-pentamethoxybenzophenone] | 1 |
| COc1ccc(C=Cc2cc(OC)c(OC)c(OC)c2)cc1 [Compound 1e, reference compound] | 97 |
| COc1ccc(Cc2cc(OC)c(OC)c(OC)c2)cc1 [Compound 7b, reference compound] | 56 |
| COc1ccc(Cc2cc(OC)c(OC)c(OC)c2)cc1O [Compound 7a, reference compound] | 65 |
| COc1ccc(CCc2cc(OC)c(OC)c(OC)c2)cc1 [Compound 8b, reference compound] | 54 |
| COc1ccc(CCc2cc(OC)c(OC)c(OC)c2)cc1O [Compound 8a, reference compound] | 77 |
| COc1cc(C(=O)c2ccc3c(c2)OCO3)cc(OC)c1OC [Compound 4a, 3,4,5-trimethoxy-3′,4′-methylenedioxybenzophenone] | 0 |

System: bovine brain tubulin
Experiment: Inhibition of tubulin polymerization
Assay type: biochemical
Settings: 10 μM tubulin, extent of assembly after 20 min at 30° C.; read-out: Inhibition of tubulin polymerization IC50, μM ± SD
Description: Electrophoretically homogeneous bovine brain tubulin was purified from bovine brain as described previously (Hamel, et al., Separation of active tubulin and microtubule-associated proteins by ultracentrifugation and isolation of a component causing the formation of microtubule bundles, Biochemistry 1984, 23, 4173-4184). Reaction mixtures (0.24 mL during preincubation, 0.25 mL during incubation, with all concentrations referring to the final volume) contained 0.8 M monosodium glutamate (taken from 2.0 M stock solution adjusted to pH 6.6 with Hcl), 1.0 mg/mL (10 μM) tubulin, 4% (v/v) dimethyl sulfoxide, and varying concentrations of drug. Samples were incubated for 15 min at 30° C. and chilled on ice. GTP, required for polymerization, was added in 10 μL to a final concentration of 0.4 mM. Samples were transferred to cuvettes held at 0° C. by electronic temperature controllers in GILFORD model 250 recording spectrophotometers. Baselines were established, and the reaction was initiated by a jump (approximately 1 min) to 30° C. Extent of assembly after 20 min was the parameter used to determine IC50 values. […] In most experiments, four spectrophotometers were used, with two control reaction mixtures.

| Compound | IC50 [µM] |
| --- | --- |
| COc1ccc(C(=O)c2cc(OC)c(OC)c(OC)c2)cc1OC [Compound 4c, 3,3′,4,4′,5-pentamethoxybenzophenone] | 15 ± 2 |
| COc1ccc(C=Cc2cc(OC)c(OC)c(OC)c2)cc1 [Compound 1e, reference compound] | 1.3 ± 0.2 |
| COc1ccc(Cc2cc(OC)c(OC)c(OC)c2)cc1 [Compound 7b, reference compound] | 4.4 ± 0.2 |
| COc1ccc(Cc2cc(OC)c(OC)c(OC)c2)cc1O [Compound 7a, reference compound] | 3.3 ± 0.5 |
| COc1ccc(CCc2cc(OC)c(OC)c(OC)c2)cc1 [Compound 8b, reference compound] | 3.2 ± 0.3 |
| COc1ccc(CCc2cc(OC)c(OC)c(OC)c2)cc1O [Compound 8a, reference compound] | 2.1 ± 0.3 |
| COc1cc(C(=O)c2ccc3c(c2)OCO3)cc(OC)c1OC [Compound 4a, 3,4,5-trimethoxy-3′,4′-methylenedioxybenzophenone] | 15 ± 2 |

Same assay, conditions: purified tubulin

| Compound | activity against tubulin / in inhibiting assembly (in words) |
| --- | --- |
| COc1cc(C(=O)c2ccc3c(c2)OCO3)cc(OC)c1OC [Compound 4a, 3,4,5-trimethoxy-3′,4′-methylenedioxybenzophenone] | only weak activity |
